# Like-named read-outs stand apart in the source and are kept apart here.
# Legend:
# E. cloacae = assay: MIC by serial two-fold agar dilution (Mueller-Hinton agar), E. cloacae; type: cell-based; conditions: Enterobacter cloacae, Table 1
# Procedure, shortened: (§1)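 Steers' apparatus delivers inocula onto Mueller-Hinton agar containing serial two-fold dilutions; MIC is recorded per strain.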
# Ps. aeruginosa A9843 = assay: Median curative dose in mice, infection with Ps. aeruginosa; type: in vivo; conditions: Pseudomonas aeruginosa, A9843, sc
# Description: Median Curative Dose in Mgm./Kg.
# Upon Subcutaneous Injection in Mice
# Pseudomonas aeruginosa = assay: MIC by agar dilution against 61 strains of Pseudomonas aeruginosa, secondary evaluation; type: cell-based; conditions: for Mean % Relative Activity (SPBC = 100%): P. aerug. (61 strains); for MIC: Pseudomonas aeruginosa
# Procedure, shortened: as §1
smiles,measurement,setting,value
"NC(=O)OCC1=C(C(=O)O)N2C(=O)C(NC(=O)[C@H](NC(=O)c3cnc4cccnc4c3O)c3ccccc3)[C@H]2SC1 (stereo partly drawn) [BB-S520, Sodium 7-[D-α-(4-hydroxy-1,5-naphthyridine-3-carboxamido)-α-phenylacetamido]-3-carbamoyloxymethyl-3-cephem-4-carboxylate]",MIC,E. cloacae; E. cloacae (1st line),12.5 µg/mL
same,MIC,E. cloacae; E. cloacae (2nd line),50 µg/mL
same,MIC,E. cloacae; E. cloacae (3rd line),25 µg/mL
same,ED50,"Ps. aeruginosa A9843; mice, P. aerug. A9843 infection, Table 5, read-out: PD50",37 mg/kg
same,ED50,"Ps. aeruginosa A9843; subcutaneous injection in mice, Ps. aeruginosa, Table 4, read-out: Median Curative Dose (PD50)",37 mg/kg
same,Rel. Act. (SBPC=100%),"Pseudomonas aeruginosa; 61 strains of Pseudomonas aeruginosa, Table 7",1016%
same,Mean % Relative Activity (SPBC = 100%),"Pseudomonas aeruginosa; lot 1, Table 5",714%
same,Mean % Relative Activity (SPBC = 100%),"Pseudomonas aeruginosa; lot 2, Table 5",1016%
same,Mean % Relative Activity (Sulbenicillin = 100%),"Pseudomonas aeruginosa; Ps. aeruginosa (61 strains), from geometric means of MICs in Table 2",714%
same,MIC,"Pseudomonas aeruginosa; 61 strains of Pseudomonas aeruginosa, Table 7, read-out: Geometric Mean of MIC",2.4 µg/mL
same,MIC,"Pseudomonas aeruginosa; BBRI Pa-No. 1, D15, Table 2, read-out: MIC",12.5 µg/mL
same,MIC,"Pseudomonas aeruginosa; BBRI Pa-No. 1, D15, Table 7, read-out: MIC",6.3 µg/mL
same,MIC,"Pseudomonas aeruginosa; BBRI Pa-No. 2, VA, Table 2, read-out: MIC",3.1 µg/mL
same,MIC,"Pseudomonas aeruginosa; BBRI Pa-No. 2, VA, Table 7, read-out: MIC",3.1 µg/mL
same,MIC,"Pseudomonas aeruginosa; BBRI Pa-No. 3, 1449VA, Table 2, read-out: MIC",1.6 µg/mL
same,MIC,"Pseudomonas aeruginosa; BBRI Pa-No. 3, 1449VA, Table 7, read-out: MIC",0.8 µg/mL
same,MIC,"Pseudomonas aeruginosa; BBRI Pa-No. 4, H9 D113, Table 2, read-out: MIC",12.5 µg/mL
same,MIC,"Pseudomonas aeruginosa; BBRI Pa-No. 4, H9 D113, Table 7, read-out: MIC",1.6 µg/mL
same,MIC,"Pseudomonas aeruginosa; BBRI Pa-No. 5, M4865KC, Table 2, read-out: MIC",3.1 µg/mL
same,MIC,"Pseudomonas aeruginosa; BBRI Pa-No. 5, N4865KC, Table 7, read-out: MIC",0.8 µg/mL
same,MIC,"Pseudomonas aeruginosa; BBRI Pa-No. 6, No. 5, Table 2, read-out: MIC",25 µg/mL
same,MIC,"Pseudomonas aeruginosa; BBRI Pa-No. 6, No. 5, Table 7, read-out: MIC",12.5 µg/mL
same,MIC,"Pseudomonas aeruginosa; BBRI Pa-No. 7, Table 2, read-out: MIC",6.3 µg/mL
same,MIC,"Pseudomonas aeruginosa; BBRI Pa-No. 7, Table 7, read-out: MIC",3.1 µg/mL
same,MIC,"Pseudomonas aeruginosa; BBRI Pa-No. 8, Table 2, read-out: MIC",3.1 µg/mL
same,MIC,"Pseudomonas aeruginosa; BBRI Pa-No. 8, Table 7, read-out: MIC",3.1 µg/mL
same,MIC,"Pseudomonas aeruginosa; BBRI Pa-No. 9, Yale, Table 2, read-out: MIC",3.1 µg/mL
same,MIC,"Pseudomonas aeruginosa; BBRI Pa-No. 9, Yale, Table 7, read-out: MIC",1.6 µg/mL
same,MIC,"Pseudomonas aeruginosa; BBRI Pa-No. 10, Table 2, read-out: MIC",50 µg/mL
same,MIC,"Pseudomonas aeruginosa; BBRI Pa-No. 10, Table 7, read-out: MIC",25 µg/mL
same,MIC,"Pseudomonas aeruginosa; BBRI Pa-No. 11, Table 2, read-out: MIC",3.1 µg/mL
same,MIC,"Pseudomonas aeruginosa; BBRI Pa-No. 11, Table 7, read-out: MIC",3.1 µg/mL
same,MIC,"Pseudomonas aeruginosa; BBRI Pa-No. 12, Table 2, read-out: MIC",6.3 µg/mL
same,MIC,"Pseudomonas aeruginosa; BBRI Pa-No. 12, Table 7, read-out: MIC",3.1 µg/mL
same,MIC,"Pseudomonas aeruginosa; BBRI Pa-No. 14, Table 2, read-out: MIC",3.1 µg/mL
same,MIC,"Pseudomonas aeruginosa; BBRI Pa-No. 14, Table 7, read-out: MIC",0.8 µg/mL
same,MIC,"Pseudomonas aeruginosa; BBRI Pa-No. 15, Table 2, read-out: MIC",12.5 µg/mL
same,MIC,"Pseudomonas aeruginosa; BBRI Pa-No. 15, Table 7, read-out: MIC",6.3 µg/mL
same,MIC,"Pseudomonas aeruginosa; BBRI Pa-No. 16, No. 130, Table 2, read-out: MIC",0.8 µg/mL
same,MIC,"Pseudomonas aeruginosa; BBRI Pa-No. 16, No. 130, Table 7, read-out: MIC",0.4 µg/mL
same,MIC,"Pseudomonas aeruginosa; BBRI Pa-No. 17, H6 D114, Table 2, read-out: MIC",6.3 µg/mL
same,MIC,"Pseudomonas aeruginosa; BBRI Pa-No. 17, H6 D114, Table 7, read-out: MIC",3.1 µg/mL
same,MIC,"Pseudomonas aeruginosa; BBRI Pa-No. 18, H8 D121, Table 2, read-out: MIC",6.3 µg/mL
same,MIC,"Pseudomonas aeruginosa; BBRI Pa-No. 18, H8 D121, Table 7, read-out: MIC",1.6 µg/mL
same,MIC,"Pseudomonas aeruginosa; BBRI Pa-No. 19, Table 2, read-out: MIC",1.6 µg/mL
same,MIC,"Pseudomonas aeruginosa; BBRI Pa-No. 19, Table 7, read-out: MIC",0.8 µg/mL
same,MIC,"Pseudomonas aeruginosa; BBRI Pa-No. 20, Table 2, read-out: MIC",3.1 µg/mL
same,MIC,"Pseudomonas aeruginosa; BBRI Pa-No. 20, Table 7, read-out: MIC",3.1 µg/mL
same,MIC,"Pseudomonas aeruginosa; BBRI Pa-No. 21, Table 2, read-out: MIC",3.1 µg/mL
same,MIC,"Pseudomonas aeruginosa; BBRI Pa-No. 21, Table 7, read-out: MIC",3.1 µg/mL
same,MIC,"Pseudomonas aeruginosa; BBRI Pa-No. 23, Table 2, read-out: MIC",6.3 µg/mL
same,MIC,"Pseudomonas aeruginosa; BBRI Pa-No. 23, Table 7, read-out: MIC",1.6 µg/mL
same,MIC,"Pseudomonas aeruginosa; BBRI Pa-No. 24, Table 2, read-out: MIC",50 µg/mL
same,MIC,"Pseudomonas aeruginosa; BBRI Pa-No. 24, Table 7, read-out: MIC",25 µg/mL
same,MIC,"Pseudomonas aeruginosa; BBRI Pa-No. 25, Table 2, read-out: MIC",1.6 µg/mL
same,MIC,"Pseudomonas aeruginosa; BBRI Pa-No. 25, Table 7, read-out: MIC",0.8 µg/mL
same,MIC,"Pseudomonas aeruginosa; BBRI Pa-No. 26, Ps32, Table 2, read-out: MIC",3.1 µg/mL
same,MIC,"Pseudomonas aeruginosa; BBRI Pa-No. 26, Ps32, Table 7, read-out: MIC",6.3 µg/mL
same,MIC,"Pseudomonas aeruginosa; BBRI Pa-No. 28, CPH1C527/72, Table 7, read-out: MIC",3.1 µg/mL
same,MIC,"Pseudomonas aeruginosa; BBRI Pa-No. 28, CPH10527/72, Table 2, read-out: MIC",6.3 µg/mL
same,MIC,"Pseudomonas aeruginosa; BBRI Pa-No. 29, D122, Table 2, read-out: MIC",1.6 µg/mL
same,MIC,"Pseudomonas aeruginosa; BBRI Pa-No. 29, D122, Table 7, read-out: MIC",1.6 µg/mL
same,MIC,"Pseudomonas aeruginosa; BBRI Pa-No. 30, Table 2, read-out: MIC",3.1 µg/mL
same,MIC,"Pseudomonas aeruginosa; BBRI Pa-No. 30, Table 7, read-out: MIC",1.6 µg/mL
same,MIC,"Pseudomonas aeruginosa; BBRI Pa-No. 31, Table 2, read-out: MIC",1.6 µg/mL
same,MIC,"Pseudomonas aeruginosa; BBRI Pa-No. 31, Table 7, read-out: MIC",0.8 µg/mL
same,MIC,"Pseudomonas aeruginosa; BBRI Pa-No. 32, Table 2, read-out: MIC",3.1 µg/mL
same,MIC,"Pseudomonas aeruginosa; BBRI Pa-No. 32, Table 7, read-out: MIC",1.6 µg/mL
same,MIC,"Pseudomonas aeruginosa; BBRI Pa-No. 33, Table 2, read-out: MIC",12.5 µg/mL
same,MIC,"Pseudomonas aeruginosa; BBRI Pa-No. 33, Table 7, read-out: MIC",1.6 µg/mL
same,MIC,"Pseudomonas aeruginosa; BBRI Pa-No. 34, Table 2, read-out: MIC",3.1 µg/mL
same,MIC,"Pseudomonas aeruginosa; BBRI Pa-No. 34, Table 7, read-out: MIC",1.6 µg/mL
same,MIC,"Pseudomonas aeruginosa; BBRI Pa-No. 35, Table 2, read-out: MIC",12.5 µg/mL
same,MIC,"Pseudomonas aeruginosa; BBRI Pa-No. 35, Table 7, read-out: MIC",6.3 µg/mL
same,MIC,"Pseudomonas aeruginosa; BBRI Pa-No. 36, Table 2, read-out: MIC",0.4 µg/mL
same,MIC,"Pseudomonas aeruginosa; BBRI Pa-No. 36, Table 7, read-out: MIC",< 0.2 µg/mL
same,MIC,"Pseudomonas aeruginosa; BBRI Pa-No. 37, Table 2, read-out: MIC",3.1 µg/mL
